Results reported in patent publication US12403184B2, “Compositions and methods for treating neurodegenerative disroders” (priority 2018, dated 2025).
Where no end group is shown, it is not given here.

Assays:
[1] = tested on: neurons derived from HD patients; assay: Cell death by LDH release in neurons derived from iPS cells; type: cell-based, human
Description: iPS cells from a normal subject and a HD patient (carrying 41 CAG repeats) were differentiated into neurons using the protocol from our previous studies. Briefly, the iPS cells were plated onto 6-well plates precoated with 2.5% Matrigel and allowed to reach 90% confluence in feeder-free medium. For the first 10 days, the cells were treated with SB431542 (10 μM; Tocris Bioscience) and Noggin (100 ng/ml) in Neural Media (NM) containing Neurobasal and DMEM (1:1), B-27 supplement minus vitamin A (50×, Invitrogen), N2 supplement (100×, Invitrogen), GlutaMax (Invitrogen, 100×), FGF2 ([…]) and EGF ([…]), and 100 units/ml penicillin and 100 μg/ml streptomycin). For the next 10 days, the cells were treated with human recombinant Sonic hedgehog (SHH, 200 ng/ml), DKK1 (100 ng/ml) and BDNF (20 ng/ml), and 10 μM Y27632 (Sigma) in neuronal differentiation medium containing Neurobasal and DMEM (1:3), B27, N2, GlutaMax, and PS. Cells were then switched to treatment with BDNF (20 ng/ml), ascorbic acid (200 μM, Sigma-Aldrich), cAMP (0.5 mM, Sigma-Aldrich), and Y27632 (10 μM) in neuronal differentiation medium. All growth factors were purchased from PeproTech (Rocky Hill, NJ, USA). […]
Cells were treated as described, and cell death was determined by using Cytotoxicity Detection Kit (LDH) according to protocols recommended by the manufacturer (Roche).

[2] = tested on: HdhQ111 cells; assay: Mitochondrial superoxide production (MitoSOX) in striatal cells; type: cell-based, mouse; conditions: relative to TAT
Description: To examine mitochondrial superoxide production, the cells were stained with MitoSOX (Invitrogen, 5 μM for 10 min) at 37° C. The cells were then washed with PBS three times and mounted for the image analysis. At least 150 cells/group were counted and quantitated.

[3] = target: T1, GST-Drp1 and ATAD3A-Flag (Homo sapiens, UniProt Q9NVI7); assay: GST pulldown assay, in vitro binding of GST-Drp1 and ATAD3A-Flag; conditions: GST pull down, peptide 60 μM
T1 construct: Abnova for GST-Drp1 L1170 (TNT kit); no catalogue number printed for GST-Drp1; host or cells: cell-free coupled transcription/translation (ATAD3A-Flag); GST-Drp1 purchased
T1 sequence (Q9NVI7 1-586): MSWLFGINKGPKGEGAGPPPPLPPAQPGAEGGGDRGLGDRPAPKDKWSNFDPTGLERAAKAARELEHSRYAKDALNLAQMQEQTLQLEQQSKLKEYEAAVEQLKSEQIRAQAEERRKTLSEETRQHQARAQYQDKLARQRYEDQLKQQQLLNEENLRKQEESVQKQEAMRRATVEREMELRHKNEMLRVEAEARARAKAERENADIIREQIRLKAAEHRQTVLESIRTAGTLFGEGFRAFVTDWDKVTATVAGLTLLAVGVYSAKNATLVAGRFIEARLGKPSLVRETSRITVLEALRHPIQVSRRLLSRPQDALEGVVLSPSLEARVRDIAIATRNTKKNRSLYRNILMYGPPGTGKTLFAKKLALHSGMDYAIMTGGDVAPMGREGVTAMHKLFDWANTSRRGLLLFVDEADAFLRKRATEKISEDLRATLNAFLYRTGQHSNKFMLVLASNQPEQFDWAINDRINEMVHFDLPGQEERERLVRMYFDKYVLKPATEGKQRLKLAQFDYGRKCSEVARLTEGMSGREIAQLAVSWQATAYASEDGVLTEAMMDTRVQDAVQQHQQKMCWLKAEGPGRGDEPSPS
Description: Using pcDNA3.1 (+)-ATAD3A-Flag plasmid as template, ATAD3A-Flag protein was synthesized by TNT® Quick Coupled Transcription/Translation System (Promega, Cat #L1170) followed by protein purification with Flag-peptide (Sigma, F3290). The expression of ATAD3A protein was confirmed by western blot analysis with both anti-ATAD3A and anti-Flag antibodies. This approach provides convenient single-tube, coupled transcription/translation reactions for eukaryotic cell-free protein expression and has been used to detect direct protein-protein interaction.
GST-Drp1 or GST control protein were incubated with Glutathione-beads in TBST buffer at r.t. After 1 h of incubation, ATAD3A-Flag protein was added, and thoroughly mixed in vibrating mixer for 30 mins at r.t., then transferred to 4° C. for overnight incubation Immunoprecipitates were then washed for three time and analyzed by SDS-PAGE.
To test the inhibitory function of DA1 peptide on in vitro binding between GST-Drp1 and ATAD3A-Flag, DA1 peptide or control peptide TAT (60 μM, each) was incubated with ATAD3A-Flag protein before mixing with GST-Drp1-glutathione beads complex.

## YGRKKRRQRRRGGEDKRKT-NH2 [DA1, YGRKKRRQRRR-GG-EDKRKT-NH2]
[1]; cells derived from iPS cells of normal subject
  neuronal survival: no observed effects
[1]; neurons derived from HD patients, BDNF withdrawal for 24 h
  cell death (LDH release): decreased
[2]
  mitochondrial oxidative stress (mitoROS): suppressed
[3]
  binding of GST-Drp1 and ATAD3A-Flag in vitro: abolished
